Measured values: US10550111B2, “Pyrimidine urea compound containing isoxazolines and use thereof” (SHENYANG SINOCHEM AGROCHEMICALS R&D CO., LTD, priority 2014, dated 2020)

Tests used:
Assay type in all cases: in vivo
[1] = test system: broad-leaf weeds and grass weeds; assay: General screening of herbicidal activity in greenhouse; settings: 1000 g a.i./hm^2;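 further: 0 means no visible effect and 100 means all weeds dead or not emerged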
Outline: (§1)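 Visual growth inhibition rating (0–100%; 100 = weeds dead or not emerged) after track-sprayer application of compounds formulated as emulsifiable concentrates. Sprays given 24 h post-sowing (pre-emergence) or at 2–3-leaf (grasses) / 2–4-leaf (broad-leaves) stage, greenhouse-grown plants.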

[2] = test system: Echinochloa crus-galli (L.) Beauv.; assay: Bioassay of herbicidal activity in greenhouse (further screening)
Outline: as §1

[3] = test system: Setaria glauca (L.) Beauv.; assay: as above
Outline: as §1

[4] = test system: Abutilon theophrasti Medic.; assay: as above
Outline: as §1

Zinnia elegans Jacq. = assay: as above
Outline: as §1

wheat = assay: Crop safety study in greenhouse; settings: 7.5-37.5 g a.i./hm^2; pre-emergence and post-emergence application
Text: (§2) Seeds of soybean, cotton, maize, wheat and rice were sown in nutrition soil in paper pot (9 cm diameter), covered with soil in 1 cm and grown in the greenhouse under good growth conditions (temperature, atmospheric humidity, water supply). The compounds of the present invention as emulsifiable concentrate, were applied in pre-emergence and post-emergence treatment by track sprayer (Engineer Research Ltd., pressure 1.95 kg/cm^2, volume 500 L/hm^2, track speed 1.48 km/h). Pre-emergence treatment was conducted after seeding 24 hours and post-emergence treatment was done when the respective weeds reached predetermined leaf stage (soybean and cotton at 2- to 4-leaf stage and maize, wheat and rice at 3-leaf stage), the state of growth of the respective crops were visually observed to determine the safety in accordance with the following evaluation standard.
(§3) Safety rating scale (%): 0 means no damage to crops; 100 means to kill crops completely.

rice = assay: Crop safety study in greenhouse; settings: 7.5-37.5 g a.i./hm^2; pre-emergence and post-emergence application
Text: as §2, §3

maize = assay: Crop safety study in greenhouse; settings: 7.5-37.5 g a.i./hm^2; pre-emergence and post-emergence application
Text: as §2, §3

CC(=O)OCC1(C)CC(c2cc(-n3c(=O)cc(C(F)(F)F)n(C)c3=O)c(F)cc2Cl)=NO1 (centres unmarked) [Compound 43]
pre-emergence and post-emergence herbicidal activity against broad-leaf weeds and grass weeds [1]: good
Growth inhibition rate, Post-emergence treatment, Echinochloa crus-galli (L.) Beauv. ([2]; dose 7.5 g a.i./hm^2): 10%
Growth inhibition rate, Post-emergence treatment, Echinochloa crus-galli (L.) Beauv. ([2]; dose 15 g a.i./hm^2): 20%
Growth inhibition rate, Post-emergence treatment, Echinochloa crus-galli (L.) Beauv. ([2]; dose 37.5 g a.i./hm^2): 10%
Growth inhibition rate, Post-emergence treatment, Echinochloa crus-galli (L.) Beauv. ([2]; dose 150 g a.i./hm^2): 90%
Growth inhibition rate, Post-emergence treatment, Echinochloa crus-galli (L.) Beauv. ([2]; dose 600 g a.i./hm^2): 100%
Growth inhibition rate, Pre-emergence treatment, Echinochloa crus-galli (L.) Beauv. ([2]; dose 7.5 g a.i./hm^2): 10%
Growth inhibition rate, Pre-emergence treatment, Echinochloa crus-galli (L.) Beauv. ([2]; dose 15 g a.i./hm^2): 60%
Growth inhibition rate, Pre-emergence treatment, Echinochloa crus-galli (L.) Beauv. ([2]; dose 37.5 g a.i./hm^2): 90%
Growth inhibition rate, Pre-emergence treatment, Echinochloa crus-galli (L.) Beauv. ([2]; dose 150 g a.i./hm^2): 95%
Growth inhibition rate, Pre-emergence treatment, Echinochloa crus-galli (L.) Beauv. ([2]; dose 600 g a.i./hm^2): 100%
Growth inhibition rate, Post-emergence treatment, Setaria glauca (L.) Beauv. ([3]; dose 7.5 g a.i./hm^2): 70%
Growth inhibition rate, Post-emergence treatment, Setaria glauca (L.) Beauv. ([3]; dose 15 g a.i./hm^2): 80%
Growth inhibition rate, Post-emergence treatment, Setaria glauca (L.) Beauv. ([3]; dose 37.5 g a.i./hm^2): 25%
Growth inhibition rate, Post-emergence treatment, Setaria glauca (L.) Beauv. ([3]; dose 150 g a.i./hm^2): 95%
Growth inhibition rate, Post-emergence treatment, Setaria glauca (L.) Beauv. ([3]; dose 600 g a.i./hm^2): 100%
Growth inhibition rate, Pre-emergence treatment, Setaria glauca (L.) Beauv. ([3]; dose 7.5 g a.i./hm^2): 20%
Growth inhibition rate, Pre-emergence treatment, Setaria glauca (L.) Beauv. ([3]; dose 15 g a.i./hm^2): 35%
Growth inhibition rate, Pre-emergence treatment, Setaria glauca (L.) Beauv. ([3]; dose 37.5 g a.i./hm^2): 90%
Growth inhibition rate, Pre-emergence treatment, Setaria glauca (L.) Beauv. ([3]; dose 150 g a.i./hm^2): 98%
Growth inhibition rate, Pre-emergence treatment, Setaria glauca (L.) Beauv. ([3]; dose 600 g a.i./hm^2): 100%
Growth inhibition rate, Post-emergence treatment, Abutilon theophrasti Medic. ([4]; dose 7.5 g a.i./hm^2): 100%
Growth inhibition rate, Post-emergence treatment, Abutilon theophrasti Medic. ([4]; dose 15 g a.i./hm^2): 100%
Growth inhibition rate, Post-emergence treatment, Abutilon theophrasti Medic. ([4]; dose 37.5 g a.i./hm^2): 100%
Growth inhibition rate, Post-emergence treatment, Abutilon theophrasti Medic. ([4]; dose 150 g a.i./hm^2): 100%
Growth inhibition rate, Post-emergence treatment, Abutilon theophrasti Medic. ([4]; dose 600 g a.i./hm^2): 100%
Growth inhibition rate, Pre-emergence treatment, Abutilon theophrasti Medic. ([4]; dose 7.5 g a.i./hm^2): 100%
Growth inhibition rate, Pre-emergence treatment, Abutilon theophrasti Medic. ([4]; dose 15 g a.i./hm^2): 100%
Growth inhibition rate, Pre-emergence treatment, Abutilon theophrasti Medic. ([4]; dose 37.5 g a.i./hm^2): 100%
Growth inhibition rate, Pre-emergence treatment, Abutilon theophrasti Medic. ([4]; dose 150 g a.i./hm^2): 100%
Growth inhibition rate, Pre-emergence treatment, Abutilon theophrasti Medic. ([4]; dose 600 g a.i./hm^2): 100%
Growth inhibition rate, Post-emergence treatment, Zinnia elegans Jacq. (Zinnia elegans Jacq.; dose 7.5 g a.i./hm^2): 98%
Growth inhibition rate, Post-emergence treatment, Zinnia elegans Jacq. (Zinnia elegans Jacq.; dose 15 g a.i./hm^2): 100%
Growth inhibition rate, Post-emergence treatment, Zinnia elegans Jacq. (Zinnia elegans Jacq.; dose 37.5 g a.i./hm^2): 100%
Growth inhibition rate, Post-emergence treatment, Zinnia elegans Jacq. (Zinnia elegans Jacq.; dose 150 g a.i./hm^2): 100%
Growth inhibition rate, Post-emergence treatment, Zinnia elegans Jacq. (Zinnia elegans Jacq.; dose 600 g a.i./hm^2): 100%
Growth inhibition rate, Pre-emergence treatment, Zinnia elegans Jacq. (Zinnia elegans Jacq.; dose 7.5 g a.i./hm^2): 0%
Growth inhibition rate, Pre-emergence treatment, Zinnia elegans Jacq. (Zinnia elegans Jacq.; dose 15 g a.i./hm^2): 25%
Growth inhibition rate, Pre-emergence treatment, Zinnia elegans Jacq. (Zinnia elegans Jacq.; dose 37.5 g a.i./hm^2): 50%
Growth inhibition rate, Pre-emergence treatment, Zinnia elegans Jacq. (Zinnia elegans Jacq.; dose 150 g a.i./hm^2): 100%
Growth inhibition rate, Pre-emergence treatment, Zinnia elegans Jacq. (Zinnia elegans Jacq.; dose 600 g a.i./hm^2): 100%
Crop safety, wheat (wheat): good safety
Crop safety, rice (rice): good safety
Crop safety, maize (maize): good safety
